Each structure is given as a SMILES string.

For 25 compounds, EC50 and IC50 results are on record in patent publication US10882856B2 (BeiGene, Ltd., priority 2017, dated 2021).

Test [1] deals with T1, IDO1 (Homo sapiens, UniProt P14902). Kind of test: Hela cell-based IDO1 assay. The following applies: Hela cells. A digest of the protocol:
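Kynurenine was measured at 480 nm in trichloroacetic acid-deproteinised supernatant after adding 2% 4-(dimethylamino)benzaldehyde. This supernatant came from HeLa cells seeded at 8000 per well in 96-well plates in phenol red-free DMEM with 10% FBS and, from 4 hours after seeding, exposed for 48 hours at 37 °C, 5% CO2 to DMSO-diluted compound dilutions, IFN-γ (final 100 ng/mL) and 0.4 mM L-Trp. The resulting data were fitted with a four-parameter logistic model in XLfit. Potency was taken from those fits.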

The target of test [2] is T2, cellular TDO2 in HEK293-TDO2 cells (Homo sapiens, UniProt P48775).
T2 construct: expressed in transfected cells; host or cells: HEK293 (ATCC), stably transfected
The test is described as follows: 293-TDO2 cell-based assay (Kyn colorimetric). The following applies: 48 hours of incubation. The method, boiled down:
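Kyn formed from L-Trp was read colorimetrically at 480 nm (TCA deproteinisation, then 2% 4-(dimethylamino)benzaldehyde). Compounds were added to 293-TDO2 cells 4 h post-seeding and left 48 h at 37° C. A four-parameter logistic model gave IC50 values.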

Test [3] has as its target T1, IDO1. The test is described as follows: IDO1 enzymatic assay. On the set-up: His tag (N); made in house; host or cells: E. coli. The class given is biochemical. To be noted: read-out: Enzyme IC50 IDO1. The method, boiled down: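 Compound was incubated with 50 nM His-tagged IDO1 from E. coli, 1.3 mM D-tryptophan, 5 mM L-ascorbic acid, methylene blue and 0.4 mg/mL catalase in 50 mM potassium phosphate pH 7.5, 0.1% BSA, at 24 °C for 1.5 hours. Activity was the slope of N'-formylkynurenine formation read continuously at 321 nm for 1 hour. IC50 was obtained from remaining activity versus compound concentration.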

T1 sequence (P14902 whole entry): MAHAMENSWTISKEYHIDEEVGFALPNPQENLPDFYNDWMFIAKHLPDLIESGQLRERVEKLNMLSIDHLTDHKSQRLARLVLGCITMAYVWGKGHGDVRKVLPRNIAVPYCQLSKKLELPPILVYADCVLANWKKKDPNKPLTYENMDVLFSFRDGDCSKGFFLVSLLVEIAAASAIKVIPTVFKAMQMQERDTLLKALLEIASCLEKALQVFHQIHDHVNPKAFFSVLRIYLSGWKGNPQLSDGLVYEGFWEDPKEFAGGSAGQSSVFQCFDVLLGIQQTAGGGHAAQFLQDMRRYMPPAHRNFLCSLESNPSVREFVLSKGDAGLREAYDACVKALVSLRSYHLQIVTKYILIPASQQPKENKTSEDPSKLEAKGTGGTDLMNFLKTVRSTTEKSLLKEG
T2 sequence (P48775 whole entry): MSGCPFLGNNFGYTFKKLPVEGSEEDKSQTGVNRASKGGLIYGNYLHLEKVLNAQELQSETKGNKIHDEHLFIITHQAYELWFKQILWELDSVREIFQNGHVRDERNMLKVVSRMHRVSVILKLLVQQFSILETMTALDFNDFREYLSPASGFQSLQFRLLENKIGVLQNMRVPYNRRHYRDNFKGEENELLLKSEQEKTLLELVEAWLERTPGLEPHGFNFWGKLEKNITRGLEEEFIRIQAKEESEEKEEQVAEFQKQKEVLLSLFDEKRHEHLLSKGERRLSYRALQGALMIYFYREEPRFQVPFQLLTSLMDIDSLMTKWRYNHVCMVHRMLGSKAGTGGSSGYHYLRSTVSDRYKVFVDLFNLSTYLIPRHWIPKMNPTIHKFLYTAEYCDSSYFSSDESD

As to `OC(c1c(C2CC2)ccc2cncn12)C1CCC(c2ccc(F)c(F)c2F)CC1` (stereo not drawn) [Example D145, (6-cyclopropylimidazo[1,5-a]pyridin-5-yl)(4-(2,3,4-trifluorophenyl)cyclohexyl)methanol], the EC50 in test [1] was 0.462 µM; in test [2], above 10 µM. In addition, in test [3], the concentration for half-maximal inhibition (IC50) was found to be 0.054 µM.
The corresponding values for `OC(c1c(C2CC2)ccn2cncc12)C1CCC(c2ccc(F)cc2)CC1` (racemic) [Example C107, (7-cyclopropylimidazo[1,5-a]pyridin-8-yl)(4-(4-fluorophenyl)cyclohexyl)methanol] are 0.157 µM, above 10 µM and 0.065 µM.
In the same order, the values of `COc1ccc([C@H]2CC[C@H]([C@@H](O)c3c(C4CC4)ccn4cncc34)CC2)cc1` [Example C101b, (R)-(7-cyclopropylimidazo[1,5-a]pyridin-8-yl)(4-(4-methoxyphenyl)cyclohexyl)methanol] are above 10 µM, above 10 µM and 9.4 µM.
In the same order, the values of `OC(c1c(C2CC2)ccc2cncn12)C1CCC(c2cccc3ccccc23)CC1` (stereo not drawn) [Example D135, (6-cyclopropylimidazo[1,5-a]pyridin-5-yl)(4-(naphthalen-1-yl)cyclohexyl)methanol] are 0.032 µM, above 10 µM and 0.032 µM.
Turning to `O[C@@H](c1c(C2CC2)ccc2cncn12)[C@H]1CC[C@H](c2ccc(Oc3ccccc3)cc2)CC1` (single isomer, unassigned) [Example D120b], the EC50 in test [1] is 4.31 µM; in test [2] it was above 10 µM. For the same compound, the IC50 in test [3] was 3.7 µM.
As for `O[C@@H](c1c(C2CC2)ccc2cncn12)C1CCN(c2ccc(Cl)cc2)CC1` (single isomer, unassigned) [Example D174b], the EC50 is 5.5 µM in test [1] and above 10 µM in test [2]. In test [3], the IC50 is above 10 µM.
Turning to `OC(c1c(C2CC2)ccc2cncn12)[C@H]1CC[C@H](c2ccc3ccsc3c2)CC1` (single isomer, unassigned) [Example D134b], the values for the EC50 in test [1] and in test [2] were 5.67 µM and above 10 µM, respectively. For the same compound, the IC50 in test [3] stood at 2.7 µM.
As to `OC(c1c(C2CC2)ccc2cncn12)C1CCN(c2ccccc2)CC1` (stereo not drawn) [Example D170, (6-cycloropylimidazo[1,5-a]pyridin-5-yl)(1-phenylpiperidin-4-yl)methanol], the EC50 in test [1] was 0.043 µM; in test [2], above 10 µM. In test [3], the 50% inhibitory concentration (IC50) came to 0.021 µM.
The corresponding values for `O[C@H](c1c(C2CC2)ccc2cncn12)[C@H]1CC[C@H](c2ccc(F)c(F)c2)CC1` (single isomer, unassigned) [Example D126a] are 0.031 µM, above 10 µM and 0.018 µM.
As to `O[C@@H](c1c(C2CC2)ccn2cncc12)[C@H]1CC[C@H](c2ccc(C(F)(F)F)nc2)CC1` (single isomer, unassigned) [Example C120b], the EC50 in test [1] and in test [2] was above 10 µM each time. The IC50 in test [3] worked out at 4.8 µM.
`OC(c1c(C2CC2)ccn2cncc12)C1CCC(c2ccccc2F)CC1` (racemic) [Example C108, (7-cyclopropylimidazo[1,5-a]pyridin-8-yl)(4-(2-fluorophenyl)cyclohexyl)methanol]: the EC50 in test [1] is 0.32 µM; in test [2], above 10 µM. For the same compound, in test [3], the IC50 worked out at 0.059 µM.
Regarding `O[C@@H](c1c(C2CC2)ccc2cncn12)[C@H]1CC[C@H](c2cc(F)cc(F)c2)CC1` (single isomer, unassigned) [Example D144b], the values for the 50% effective concentration (EC50) in test [1] and in test [2] were 6.41 µM and above 10 µM, respectively. The IC50 in test [3] came out at 8 µM.
For `OC(c1c(C2CC2)ccc2cncn12)C1CCN(c2ccc3ncncc3c2)CC1` (stereo not drawn) [Example D181, (6-cyclopropylimidazo[1,5-a]pyridin-5-yl)(1-(quinazolin-6-yl)piperidin-4-yl)methanol], the EC50 in test [1] is 1.02 µM; in test [2], above 10 µM. In addition, the IC50 in test [3] worked out at 0.031 µM.
The corresponding values for `Oc1ccccc1[C@H]1CC[C@H]([C@@H](O)c2c(C3CC3)ccc3cncn23)CC1` (single isomer, unassigned) [Example D112b] are above 10 µM, above 10 µM and 1.7 µM.
The corresponding values for `O[C@@H](c1c(C2CC2)ccc2cncn12)[C@H]1CC[C@H](c2ccc(-c3ccccc3)cc2)CC1` (single isomer, unassigned) [Example D119b] are 3.53 µM, above 10 µM and 2.2 µM.
In the same order, the values of `OC(c1c(C2CC2)ccc2cncn12)C1CCN(c2ccc(Cl)cc2)CC1` (stereo not drawn) [Example D174, (1-(4-chlorophenyl)piperidin-4-yl)(6-cyclopropylimidazo[1,5-a]pyridin-5-yl)methanol] are 0.167 µM, above 10 µM and 0.038 µM.
For `OC(c1c(C2CC2)ccc2cncn12)[C@H]1CC[C@@H](c2ccc(Cl)cc2)CC1` (single isomer, unassigned) [Example D103a], the EC50 in test [1] and in test [2] was above 10 µM throughout. Besides, in test [3], the IC50 stood at 1.9 µM.
As to `O[C@@H](c1c(C2CC2)ccc2cncn12)[C@H]1CC[C@H](c2cccc3ncccc32)CC1` (single isomer, unassigned) [Example D141b], the EC50 was 7.58 µM in test [1] and above 10 µM in test [2]. In test [3], the IC50 came out at 3.8 µM.
Turning to `O[C@@H](c1c(C2CC2)ccc2cncn12)[C@H]1CC[C@H](c2ccc3sccc3c2)CC1` (single isomer, unassigned) [Example D133b], the values for the EC50 in test [1] and in test [2] were 8.9 µM and above 10 µM, respectively. In test [3], the IC50 was above 10 µM.
With `O[C@@H](c1c(C2CC2)ccn2cncc12)[C@H]1CC[C@H](c2ccccc2F)CC1` (single isomer, unassigned) [Example C108b], the EC50 in test [1] and in test [2] was above 10 µM each time. Moreover, the IC50 in test [3] came out at 7.3 µM.
`OC(c1c(C2CC2)ccc2cncn12)C1CCC(c2ccnc3c(F)cccc23)CC1` (stereo not drawn) [Example D164, (6-cyclopropylimidazo[1,5-a]pyridin-5-yl)(4-(8-fluoroquinolin-4-yl)cyclohexyl)methanol]: the results for the EC50 in test [1] and in test [2] were 0.051 µM and above 10 µM, respectively. For the same compound, in test [3], the IC50 amounted to 0.033 µM.
The corresponding values for `N#Cc1ccc(N2CCC(C(O)c3c(C4CC4)ccn4cncc34)CC2)cc1` (single isomer, unassigned) [Example C144b] are above 10 µM, above 10 µM and above 10 µM.
In the same order, the values of `Oc1cccc(C2CCC(C(O)c3c(C4CC4)ccc4cncn34)CC2)c1` (stereo not drawn) [Example D142, 3-(4-((6-cyclopropylimidazo[1,5-a]pyridin-5-yl)(hydroxy)methyl)cyclohexyl)phenol] are 0.04 µM, above 10 µM and 0.032 µM.
Consider `O[C@H](c1c(C2CC2)ccc2cncn12)C1CCN(c2cccc(F)c2)CC1` [Example D172a], for which the EC50 is 0.023 µM in test [1] and above 10 µM in test [2]. Moreover, the IC50 in test [3] was found to be 0.014 µM.
The corresponding values for `COc1ccc([C@H]2CC[C@H](C(O)c3c(C4CC4)ccc4cncn34)CC2)c(F)c1` (single isomer, unassigned) [Example D146b] are 4.57 µM, above 10 µM and 2.9 µM.

The term EC50 denotes the concentration needed to bring the measured effect to its halfway point. A low value points to a more potent agent. A word on the IC50: it is the point on the concentration scale where inhibition reaches its midpoint.
